For data set [1], the system named is Mus musculus. In words: Antiinflammatory activity in LPS-induced acute lung injury mouse model assessed as BALF protein concentration at 1 mg/kg, ip. In kind it is functional.
Data set [2] deals with T1, Transient receptor potential cation channel subfamily V member 4 (Homo sapiens, UniProt Q9HBA0). Put plainly: Antagonist activity at TRPV4 (unknown origin) expressed in Flp-In-CHO cells assessed as inhibition of GSK1016790A induced Ca2+ influx by calcium imaging method. In kind it is cell-based.
Data set [3] concerns Mus musculus. Put plainly: Antiinflammatory activity in LPS-induced acute lung injury mouse model assessed as pathological score at 1 mg/kg, ip by hematoxylin and eosin staining based analysis. In kind it is functional.
In data set [4] the target is T1, Transient receptor potential cation channel subfamily V member 4. Put plainly: Antagonist activity at human TRPV4.
Data set [5] is described as follows: Cytotoxicity against human HUVEC cells assessed as reduction in cell viability. In kind it is toxicity, cell-based.

Each structure is given as a SMILES string. pIC50: −log10 of the molar value. A value given as a limit tells only on which side of the number the result lay.

T1 sequence (Q9HBA0 whole entry): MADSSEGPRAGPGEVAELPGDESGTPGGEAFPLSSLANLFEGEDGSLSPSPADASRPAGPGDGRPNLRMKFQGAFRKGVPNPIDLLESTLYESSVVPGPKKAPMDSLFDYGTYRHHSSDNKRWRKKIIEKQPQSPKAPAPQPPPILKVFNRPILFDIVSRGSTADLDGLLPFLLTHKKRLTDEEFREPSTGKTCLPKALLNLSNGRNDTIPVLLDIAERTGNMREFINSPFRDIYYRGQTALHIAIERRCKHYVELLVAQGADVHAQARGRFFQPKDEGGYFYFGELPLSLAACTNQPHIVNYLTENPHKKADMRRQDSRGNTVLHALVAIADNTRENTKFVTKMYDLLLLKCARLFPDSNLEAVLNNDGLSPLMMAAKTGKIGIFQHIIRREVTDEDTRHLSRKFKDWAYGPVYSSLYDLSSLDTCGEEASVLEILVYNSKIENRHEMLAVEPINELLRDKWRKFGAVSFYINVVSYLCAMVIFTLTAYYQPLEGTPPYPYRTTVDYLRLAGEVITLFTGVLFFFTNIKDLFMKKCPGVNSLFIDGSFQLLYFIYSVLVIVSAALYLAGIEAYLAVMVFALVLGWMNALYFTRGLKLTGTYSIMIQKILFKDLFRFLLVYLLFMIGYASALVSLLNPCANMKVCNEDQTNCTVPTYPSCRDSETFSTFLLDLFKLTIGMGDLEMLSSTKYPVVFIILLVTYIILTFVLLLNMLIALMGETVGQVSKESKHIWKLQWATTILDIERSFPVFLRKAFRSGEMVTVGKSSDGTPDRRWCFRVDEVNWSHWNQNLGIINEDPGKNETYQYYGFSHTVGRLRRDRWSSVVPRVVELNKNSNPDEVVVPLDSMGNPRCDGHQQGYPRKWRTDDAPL

On to `Cc1c(C(=O)Nc2cccc(C(F)(F)F)c2)cc(-c2ccccc2)n1CCCN1CCOCC1`, for which the figures for the Activity in the data set on Mus musculus [1] and with Mus musculus [3] were 1.5 and 5.4, respectively. Further, the negative-log IC50 (pIC50) in data set [2] was 7.13; in data set [4], 6.69.
With `CC(C)C[C@H](NC(=O)c1cc2ccccc2s1)C(=O)N1CCN(C(=O)[C@H](CO)NS(=O)(=O)c2ccc(Cl)cc2Cl)CC1`, the pIC50 in data set [2] is 6.92.
With `CC(=O)Nc1c(Cl)c(Cl)cc2c1nc(NC(C)C)n2C1CCN(c2ccc(C3(C#N)CCC3)cc2)CC1`, the CC50 in data set [5] is greater than 100000 nM.
In the case of `CC(=O)Nc1c(Cl)c(Cl)cc2c1nc(NC(C)C)n2C1CCN(c2ccc(C3(C#N)CCCC3)cc2)CC1`, the CC50 in data set [5] is greater than 100000 nM.
